System: 266295-075-R-J1-PDC spheroid viability
Assay: Anticancer human tumor 266295-075-R-J1-PDC patient-derived head and neck squamous carcinoma cell line growth inhibition [POLQ]
Details: spheroids with HUVEC and MSC; for IC50: curve of first compound; for viability, T/C: stronger effect = lower value
Summary of the method: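 Three-cell-type spheroids modelling solid tumor plus stroma served as the readout system; POL inhibitors were tested individually and in combination, concentration ranges set by clinical Cmax where known.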

[1] = second compound 0.0316 µM, first compound 0.0316 µM
[2] = second compound 0.0316 µM, first compound 0.1 µM
[3] = second compound 0.0316 µM, first compound 0.316 µM
[4] = second compound 0.0316 µM, first compound 1 µM
[5] = second compound 0.0316 µM, first compound 3.16 µM
[6] = second compound 0.0316 µM, first compound 10 µM
[7] = second compound 0.1 µM, first compound 0.0316 µM
[8] = second compound 0.1 µM, first compound 0.1 µM
[9] = second compound 0.1 µM, first compound 0.316 µM
[10] = second compound 0.1 µM, first compound 1 µM
[11] = second compound 0.1 µM, first compound 3.16 µM
[12] = second compound 0.1 µM, first compound 10 µM
[13] = second compound 0.316 µM, first compound 0.0316 µM
[14] = second compound 0.316 µM, first compound 0.1 µM
[15] = second compound 0.316 µM, first compound 0.316 µM
[16] = second compound 0.316 µM, first compound 1 µM
[17] = second compound 0.316 µM, first compound 3.16 µM
[18] = second compound 0.316 µM, first compound 10 µM
[19] = second compound 1 µM, first compound 0.0316 µM
[20] = second compound 1 µM, first compound 0.1 µM
[21] = second compound 1 µM, first compound 0.316 µM
[22] = second compound 1 µM, first compound 1 µM
[23] = second compound 1 µM, first compound 3.16 µM
[24] = second compound 1 µM, first compound 10 µM
[25] = second compound 3.16 µM, first compound 0.0316 µM
[26] = second compound 3.16 µM, first compound 0.1 µM
[27] = second compound 3.16 µM, first compound 0.316 µM
[28] = second compound 3.16 µM, first compound 1 µM
[29] = second compound 3.16 µM, first compound 3.16 µM
[30] = second compound 3.16 µM, first compound 10 µM
[31] = second compound 10 µM, first compound 0.0316 µM
[32] = second compound 10 µM, first compound 0.1 µM
[33] = second compound 10 µM, first compound 0.316 µM
[34] = second compound 10 µM, first compound 1 µM
[35] = second compound 10 µM, first compound 3.16 µM
[36] = second compound 10 µM, first compound 10 µM
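Note: spheroids exposed to compounds for seven days before readout.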

CC1COCCN1c1cc(C2(O)CC3CCC(C2)O3)c2cnn(-c3ccn[nH]3)c2n1 (stereo not drawn) + COC1C(OC(N)=O)C(O)C(Oc2ccc3c(O)c(NC(=O)c4ccc(O)c(CC=C(C)C)c4)c(=O)oc3c2C)OC1(C)C
IC50 (second compound 0.0316 µM): 1.13 µM | IC50 (second compound 0.1 µM): 1.29 µM | IC50 (second compound 0.316 µM): 1.05 µM | IC50 (second compound 1 µM): 0.921 µM | IC50 (second compound 3.16 µM): 0.898 µM | IC50 (second compound 10 µM): 0.903 µM | viability, T/C [1]: 84.7% | viability, T/C [2]: 79.8% | viability, T/C [3]: 65.6% | viability, T/C [4]: 52.8% | viability, T/C [5]: 36.9% | viability, T/C [6]: 29.8% | viability, T/C [7]: 92% | viability, T/C [8]: 80.8% | viability, T/C [9]: 62.7% | viability, T/C [10]: 51.5% | viability, T/C [11]: 44.6% | viability, T/C [12]: 26.8% | viability, T/C [13]: 103% | viability, T/C [14]: 69.5% | viability, T/C [15]: 64.8% | viability, T/C [16]: 56.1% | viability, T/C [17]: 43.2% | viability, T/C [18]: 30.4% | viability, T/C [19]: 87.2% | viability, T/C [20]: 73.3% | viability, T/C [21]: 75.3% | viability, T/C [22]: 46.8% | viability, T/C [23]: 41.7% | viability, T/C [24]: 34.4% | viability, T/C [25]: 84.2% | viability, T/C [26]: 74.7% | viability, T/C [27]: 57% | viability, T/C [28]: 48.2% | viability, T/C [29]: 42.9% | viability, T/C [30]: 31% | viability, T/C [31]: 81.2% | viability, T/C [32]: 81.9% | viability, T/C [33]: 63.2% | viability, T/C [34]: 49.4% | viability, T/C [35]: 39.3% | viability, T/C [36]: 34.2%

O=C(c1cc(Cc2n[nH]c(=O)c3ccccc23)ccc1F)N1CCN(C(=O)C2CC2)CC1 + Nc1ccc(C#CCN(C(=O)Cc2ncc(C(F)(F)F)cc2C(F)(F)F)c2ccc(F)cc2)nn1
IC50 (second compound 0.0316 µM): > 10 µM | IC50 (second compound 0.1 µM): > 10 µM | IC50 (second compound 0.316 µM): > 10 µM | IC50 (second compound 1 µM): > 10 µM | IC50 (second compound 3.16 µM): > 10 µM | IC50 (second compound 10 µM): > 10 µM | viability, T/C [1]: 105% | viability, T/C [2]: 103% | viability, T/C [3]: 115% | viability, T/C [4]: 94.1% | viability, T/C [5]: 108% | viability, T/C [6]: 89% | viability, T/C [7]: 96.6% | viability, T/C [8]: 88.2% | viability, T/C [9]: 97.6% | viability, T/C [10]: 92.9% | viability, T/C [11]: 105% | viability, T/C [12]: 89.5% | viability, T/C [13]: 124% | viability, T/C [14]: 92.8% | viability, T/C [15]: 77.1% | viability, T/C [16]: 100% | viability, T/C [17]: 80.6% | viability, T/C [18]: 99.4% | viability, T/C [19]: 90.1% | viability, T/C [20]: 106% | viability, T/C [21]: 91.9% | viability, T/C [22]: 97.7% | viability, T/C [23]: 85.7% | viability, T/C [24]: 87% | viability, T/C [25]: 92.7% | viability, T/C [26]: 83.9% | viability, T/C [27]: 91% | viability, T/C [28]: 106% | viability, T/C [29]: 106% | viability, T/C [30]: 98.4% | viability, T/C [31]: 110% | viability, T/C [32]: 99.7% | viability, T/C [33]: 96.3% | viability, T/C [34]: 97.7% | viability, T/C [35]: 77% | viability, T/C [36]: 81.8%

CCc1cc2c(N3CCc4c(cc(Cn5ccnc5)cc4-c4cn(C)nc4C(F)(F)F)C3=O)ccnc2c(OC)n1 + COC1C(OC(N)=O)C(O)C(Oc2ccc3c(O)c(NC(=O)c4ccc(O)c(CC=C(C)C)c4)c(=O)oc3c2C)OC1(C)C
IC50 (second compound 0.0316 µM): > 10 µM | IC50 (second compound 0.1 µM): > 10 µM | IC50 (second compound 0.316 µM): > 10 µM | IC50 (second compound 1 µM): > 10 µM | IC50 (second compound 3.16 µM): > 10 µM | IC50 (second compound 10 µM): > 10 µM | viability, T/C [1]: 88.9% | viability, T/C [2]: 93% | viability, T/C [3]: 119% | viability, T/C [4]: 104% | viability, T/C [5]: 144% | viability, T/C [6]: 132% | viability, T/C [7]: 117% | viability, T/C [8]: 96.8% | viability, T/C [9]: 127% | viability, T/C [10]: 107% | viability, T/C [11]: 114% | viability, T/C [12]: 132% | viability, T/C [13]: 94.8% | viability, T/C [14]: 96.7% | viability, T/C [15]: 95% | viability, T/C [16]: 129% | viability, T/C [17]: 120% | viability, T/C [18]: 115% | viability, T/C [19]: 95.3% | viability, T/C [20]: 80.9% | viability, T/C [21]: 94% | viability, T/C [22]: 102% | viability, T/C [23]: 129% | viability, T/C [24]: 127% | viability, T/C [25]: 100% | viability, T/C [26]: 101% | viability, T/C [27]: 104% | viability, T/C [28]: 117% | viability, T/C [29]: 159% | viability, T/C [30]: 146% | viability, T/C [31]: 90.2% | viability, T/C [32]: 87.7% | viability, T/C [33]: 111% | viability, T/C [34]: 117% | viability, T/C [35]: 145% | viability, T/C [36]: 135%

COc1cc(C2c3cc4c(cc3C(OC3OC5COC(C)OC5C(O)C3O)C3COC(=O)C23)OCO4)cc(OC)c1O (stereo not drawn) + Nc1ccc(C#CCN(C(=O)Cc2ncc(C(F)(F)F)cc2C(F)(F)F)c2ccc(F)cc2)nn1
IC50 (second compound 0.0316 µM): > 10 µM | IC50 (second compound 0.1 µM): > 10 µM | IC50 (second compound 0.316 µM): > 10 µM | IC50 (second compound 1 µM): > 10 µM | IC50 (second compound 3.16 µM): > 10 µM | IC50 (second compound 10 µM): > 10 µM | viability, T/C [1]: 81.1% | viability, T/C [2]: 103% | viability, T/C [3]: 77.6% | viability, T/C [4]: 94.4% | viability, T/C [5]: 98.9% | viability, T/C [6]: 82.8% | viability, T/C [7]: 84.1% | viability, T/C [8]: 97% | viability, T/C [9]: 103% | viability, T/C [10]: 97.4% | viability, T/C [11]: 111% | viability, T/C [12]: 80.1% | viability, T/C [13]: 97% | viability, T/C [14]: 127% | viability, T/C [15]: 82.2% | viability, T/C [16]: 90.7% | viability, T/C [17]: 94.9% | viability, T/C [18]: 90.6% | viability, T/C [19]: 104% | viability, T/C [20]: 94.1% | viability, T/C [21]: 92.3% | viability, T/C [22]: 96.4% | viability, T/C [23]: 92.3% | viability, T/C [24]: 88.8% | viability, T/C [25]: 75.9% | viability, T/C [26]: 118% | viability, T/C [27]: 84.8% | viability, T/C [28]: 93.2% | viability, T/C [29]: 107% | viability, T/C [30]: 90.5% | viability, T/C [31]: 90.8% | viability, T/C [32]: 92.9% | viability, T/C [33]: 95.2% | viability, T/C [34]: 81.2% | viability, T/C [35]: 95.8% | viability, T/C [36]: 77.1%
